Several values for one entry are separate records, joined by “and”; a condition that tells them apart may be missing. Equal values may be shown once.
Key:
Format in all cases: in vivo
weeds [1] = experiment: Glasshouse weed control, HST inhibitors alone and with A22, post-emergence; conditions: 14 DAT, single replicate
Protocol: (§1) In a further test, the results of which are depicted in tables 18 and 19, weed seeds are planted out in trays containing 50% peat/50% John Innes no. 3 soil and grown in the glass house at 24-27 C day; 18-21 C night and approximately a 15 h photoperiod. Humidity is ˜65% and light levels at bench level are up to 2 mmol/m^2. Again all spray chemicals are dissolved in 0.2% X77 surfactant and sprayed from a boom on a track sprayer moving at 2 mph with the nozzle set about 2 inches above the plant tops. The spray volume is […]. Sprays are carried out both pre-emergence and post-emergence over small plants at about 7-12 d post-emergence. Plants are assessed at 14 DAT with herbicidal damage scored on a scale from 0 to 100%. The HPPD inhibiting herbicide is compound A22 (4-hydroxy-3-[[2-(2-methoxyethoxy)methyl]-6-(trifluoromethyl)-3-pyridinylicarbonyl]-bicyclo[3.2.1]oct-3-en-2-one) which is sprayed at 2 g/ha both alone and in mixture with various HST herbicides. Results and spray rates are depicted in Tables 18 and 19. Again the Colby formula has been used to calculate synergy scores observed following treatment with the mixture based on the results obtained with the single components alone. Positive synergy is observed between the HPPD herbicide and a wide variety of HST inhibitor herbicides applied both pre and postemergence across a variety of weeds.

weeds [2] = experiment: Glasshouse weed control, HST inhibitors alone and with A22, pre-emergence; conditions: 14 DAT
Protocol: as §1

[3] = test system: wild-type (WT) Samsun tobacco; experiment: Glasshouse spray test, wild-type tobacco; conditions: Norflurazon, 150 g/ha; 14 DAT; WT control, reps
Protocol: Rooted transgenic T0 plantlets are transferred from agar and potted into 50% peat, 50% John Innes soil no 3 or, for example, MetroMix® 380 soil (Sun Gro Horticulture, Bellevue, Wash.) with slow-release fertilizer in 3 inch round or 4 inch square pots and left regularly watered to establish for 8-12 d in the glass house. Glass house conditions are about 24-27° C. day; 18-21° C. night and approximately a 14 h (or longer in UK summer) photoperiod. Humidity is ˜65% and light levels up to 2000 μmol/m^2 at bench level. Once new tissue emerges and plants they have reached the 2-4 leaf stage some of the clones from each event are sprayed with test chemicals dissolved in water with 0.2-0.25% X-77 surfactant and sprayed from a boom on a suitable track sprayer moving at 2 mph in a DeVries spray chamber with the nozzle about 2 inches from the plant tops. Spray volume is suitably 25 gallons per acre or, for example, […].
Test chemicals are, for example, compound 2.3 at 500 g/ha. At the same time that transgenic plants are sprayed so too are w/t Samsun tobacco plants grown from seed as well as non-transgenic plants regenerated from tissue culture and non-transgenic tissue culture escapes. Damage is assessed versus unsprayed control plants of like size and development.
6 Seed from w/t Samsun tobacco and 8 T1 seed from events B8 and G9 are also planted out in 3 inch pots, grown on for 7 to 12 d and then, as described in the foregoing examples, the plantlets spray tested for resistance to various chemicals and assessed at 14 DAT. Chemicals are formulated in 0.2% X77 and sprayed at a spray volume of 200 l/ha.
Seed of wild-type tobacco plants, C2 tobacco plants and of the T1 progeny of a further Arabidopsis-HST expressing tobacco line, D2 were planted out in 3 inch pots, grown on, sprayed with compounds 1.1, 2.30 and 3.6 at the rates shown in table 5. Percent damage scores were assessed at 7 DAT. Aside from the presumptive non-transgenic segregants the D2 line containing the Arabidopis HST expression construct offered the highest level of tolerance to the two HST herbicides with the Psuedomonas HPPD, C2 line, offering only marginal tolerance under the conditions of this test.
Single copy events amongst the T1 plant lines are identified by their 3:1 segregation ratio (wrt kanamycin and or herbicide) and by quantitative RT-PCR. Seed from the thus selected T1 tobacco (var Samsun) lines are sown in 3 inch diameter pots containing 50% peat, 50% John Innes soil no 3. After growth to the 3 leaf stage, plants are sprayed, as described above, in order to test for herbicide tolerance relative to like-treated non-transgenic tobacco plants.
Control tobacco plants and transgenic T1 plants expressing either the Pseudomonas or the wheat HPPD gene are sprayed at 37, 111, 333 and 1000 g/ha rates of HST inhibitors and, for example, compound 2.3.
Plants are assessed and scored for % damage at 16 DAT.

Compound: CC(C)C(=O)Oc1c(-c2c(Cl)cccc2C(F)(F)F)c(=O)n(CC(F)F)c2nccnc12 [Compound 2.28]
- % control score, Obs (weeds [1]; BRAPL, 15.625 g/ha alone): 5%
- % control score, Obs (weeds [1]; BRAPL, 62.5 g/ha alone): 50%
- % control score, Obs (weeds [1]; BRAPL, 250 g/ha alone): 75%
- % control score, Obs (weeds [1]; DIGSA, 15.625 g/ha alone): 10%
- % control score, Obs (weeds [1]; DIGSA, 62.5 g/ha alone): 50%
- % control score, Obs (weeds [1]; DIGSA, 250 g/ha alone): 70%
- % control score, Obs (weeds [1]; ECHCG, 15.625 g/ha alone): 2%
- % control score, Obs (weeds [1]; ECHCG, 62.5 g/ha alone): 40%
- % control score, Obs (weeds [1]; ECHCG, 250 g/ha alone): 70%
- % control score, Obs (weeds [1]; PANMI, 15.625 g/ha alone): 1%
- % control score, Obs (weeds [1]; PANMI, 62.5 g/ha alone): 35%
- % control score, Obs (weeds [1]; PANMI, 250 g/ha alone): 70%
- % control score, Obs (weeds [1]; SETFA, 15.625 g/ha alone): 2%
- % control score, Obs (weeds [1]; SETFA, 62.5 g/ha alone): 50%
- % control score, Obs (weeds [1]; SETFA, 250 g/ha alone): 80%
- % control score, Obs (weeds [1]; SIDSP, 15.625 g/ha alone): 15%
- % control score, Obs (weeds [1]; SIDSP, 62.5 g/ha alone): 40%
- % control score, Obs (weeds [1]; SIDSP, 250 g/ha alone): 50%
- BRAPL Obs, % control score (weeds [2]; HST inhibitor rate 15.625 g/ha): 0%
- BRAPL Obs, % control score (weeds [2]; HST inhibitor rate 62.5 g/ha): 2%
- BRAPL Obs, % control score (weeds [2]; HST inhibitor rate 250 g/ha): 50%
- DIGSA Obs, % control score (weeds [2]; HST inhibitor rate 15.625 g/ha): 0%
- DIGSA Obs, % control score (weeds [2]; HST inhibitor rate 62.5 g/ha): 0%
- DIGSA Obs, % control score (weeds [2]; HST inhibitor rate 250 g/ha): 30%
- ECHCG Obs, % control score (weeds [2]; HST inhibitor rate 15.625 g/ha): 0%
- ECHCG Obs, % control score (weeds [2]; HST inhibitor rate 62.5 g/ha): 50%
- ECHCG Obs, % control score (weeds [2]; HST inhibitor rate 250 g/ha): 80%
- PANMI Obs, % control score (weeds [2]; HST inhibitor rate 15.625 g/ha): 0%
- PANMI Obs, % control score (weeds [2]; HST inhibitor rate 62.5 g/ha): 0%
- PANMI Obs, % control score (weeds [2]; HST inhibitor rate 250 g/ha): 60%
- SETFA Obs, % control score (weeds [2]; HST inhibitor rate 15.625 g/ha): 0%
- SETFA Obs, % control score (weeds [2]; HST inhibitor rate 62.5 g/ha): 25%
- SETFA Obs, % control score (weeds [2]; HST inhibitor rate 250 g/ha): 60%
- SIDSP Obs, % control score (weeds [2]; HST inhibitor rate 15.625 g/ha): 0%
- SIDSP Obs, % control score (weeds [2]; HST inhibitor rate 62.5 g/ha): 0%
- SIDSP Obs, % control score (weeds [2]; HST inhibitor rate 250 g/ha): 10%

Compound: COCCOCc1nc(C(F)(F)F)ccc1C(=O)C1=C(O)C2CCC(C2)C1=O (stereo not shown) [Compound A22, 4-hydroxy-3-[[2-(2-methoxyethoxy)methyl]-6-(trifluoromethyl)-3-pyridinylicarbonyl]-bicyclo[3.2.1]oct-3-en-2-one, reference compound]
- % control score, Obs (weeds [1]; BRAPL, A22 alone 2 g/ha): 2%
- % control score, Obs (weeds [1]; DIGSA, A22 alone 2 g/ha): 5%
- % control score, Obs (weeds [1]; ECHCG, A22 alone 2 g/ha): 30%
- % control score, Obs (weeds [1]; PANMI, A22 alone 2 g/ha): 50% and 55%
- % control score, Obs (weeds [1]; SETFA, A22 alone 2 g/ha): 10% and 2%
- % control score, Obs (weeds [1]; SIDSP, A22 alone 2 g/ha): 20% and 15%
- BRAPL Obs, % control score (weeds [2]; rate 2 g/ha): 0%
- DIGSA Obs, % control score (weeds [2]; rate 2 g/ha): 2% and 0%
- ECHCG Obs, % control score (weeds [2]; rate 2 g/ha): 5% and 0%
- PANMI Obs, % control score (weeds [2]; rate 2 g/ha): 0%
- SETFA Obs, % control score (weeds [2]; rate 2 g/ha): 5% and 0%
- SIDSP Obs, % control score (weeds [2]; rate 2 g/ha): 2% and 0%

Compound: CNc1cnn(-c2cccc(C(F)(F)F)c2)c(=O)c1Cl [Norflurazon, reference compound]
- herbicide % damage [3]: 20% and 15% and 10%

Compound: CC(C)(C)C(=O)Oc1c(-c2c(F)ccc(Cl)c2Cl)c(=O)n(CC(F)F)c2nccnc12 [Compound 2.25]
- % control score, Obs (weeds [1]; BRAPL, 15.625 g/ha alone): 15%
- % control score, Obs (weeds [1]; BRAPL, 62.5 g/ha alone): 30%
- % control score, Obs (weeds [1]; BRAPL, 250 g/ha alone): 60%
- % control score, Obs (weeds [1]; DIGSA, 15.625 g/ha alone): 0%
- % control score, Obs (weeds [1]; DIGSA, 62.5 g/ha alone): 2%
- % control score, Obs (weeds [1]; DIGSA, 250 g/ha alone): 10%
- % control score, Obs (weeds [1]; ECHCG, 15.625 g/ha alone): 1%
- % control score, Obs (weeds [1]; ECHCG, 62.5 g/ha alone): 2%
- % control score, Obs (weeds [1]; ECHCG, 250 g/ha alone): 30%
- % control score, Obs (weeds [1]; PANMI, 15.625 g/ha alone): 2%
- % control score, Obs (weeds [1]; PANMI, 62.5 g/ha alone): 10%
- % control score, Obs (weeds [1]; PANMI, 250 g/ha alone): 55%
- % control score, Obs (weeds [1]; SETFA, 15.625 g/ha alone): 1%
- % control score, Obs (weeds [1]; SETFA, 62.5 g/ha alone): 5%
- % control score, Obs (weeds [1]; SETFA, 250 g/ha alone): 40%
- % control score, Obs (weeds [1]; SIDSP, 15.625 g/ha alone): 10%
- % control score, Obs (weeds [1]; SIDSP, 62.5 g/ha alone): 30%
- % control score, Obs (weeds [1]; SIDSP, 250 g/ha alone): 40%
- BRAPL Obs, % control score (weeds [2]; HST inhibitor rate 15.625 g/ha): 0%
- BRAPL Obs, % control score (weeds [2]; HST inhibitor rate 62.5 g/ha): 2%
- BRAPL Obs, % control score (weeds [2]; HST inhibitor rate 250 g/ha): 20%
- DIGSA Obs, % control score (weeds [2]; HST inhibitor rate 15.625 g/ha): 0%
- DIGSA Obs, % control score (weeds [2]; HST inhibitor rate 62.5 g/ha): 0%
- DIGSA Obs, % control score (weeds [2]; HST inhibitor rate 250 g/ha): 5%
- ECHCG Obs, % control score (weeds [2]; HST inhibitor rate 15.625 g/ha): 0%
- ECHCG Obs, % control score (weeds [2]; HST inhibitor rate 62.5 g/ha): 0%
- ECHCG Obs, % control score (weeds [2]; HST inhibitor rate 250 g/ha): 30%
- PANMI Obs, % control score (weeds [2]; HST inhibitor rate 15.625 g/ha): 0%
- PANMI Obs, % control score (weeds [2]; HST inhibitor rate 62.5 g/ha): 0%
- PANMI Obs, % control score (weeds [2]; HST inhibitor rate 250 g/ha): 10%
- SETFA Obs, % control score (weeds [2]; HST inhibitor rate 15.625 g/ha): 0%
- SETFA Obs, % control score (weeds [2]; HST inhibitor rate 62.5 g/ha): 1%
- SETFA Obs, % control score (weeds [2]; HST inhibitor rate 250 g/ha): 15%
- SIDSP Obs, % control score (weeds [2]; HST inhibitor rate 15.625 g/ha): 0%
- SIDSP Obs, % control score (weeds [2]; HST inhibitor rate 62.5 g/ha): 1%
- SIDSP Obs, % control score (weeds [2]; HST inhibitor rate 250 g/ha): 2%

Source: patent publication US20110173718A1, “HERBICIDE TOLERANT PLANTS” (SYNGENTA CROP PROTECTION, INC., priority 2008, published 2011)
